Assay results: patent US7247746B2, “Crystal forms of N-(trans-4-isopropylcyclohexylcarbonyl)-D-phenylalanine” (Novartis, AG, priority 2002, dated 2007)

Experiment: solubility of nateglinide in crystallisation solvents
Type: physicochemical
Description: First solvents in which nateglinide is readily soluble, i.e., in amounts of at least 1% by weight at an ambient temperature, include lower alcohols, such as methanol, ethanol and isopropanol. Polar solvents such as acetone, tetrahydrofuran, dioxane and dichloromethane can also be effective when used as the first solvent. Second solvents in which nateglinide is only poorly soluble, i.e., in amounts of 0.01% by weight or less, include water, hexane, heptane and diethyl ether. Where a mixed solvent is employed as the first solvent, a mixture of ethanol and toluene or a mixture of methanol and ethyl acetate is effective preferably in combination with water as the second solvent, and more preferably with water containing from about 0.5 to about 3% by weight of hydroxypropylmethylcellulose. The amount of nateglinide in the solvent ranges preferably from 1 to 50% by weight of the resulting mixture. If the amount of nateglinide is more than 50% by weight then the slurry properties of the initial suspension are poor and it will be difficult to agitate the mixture and dissolve the solid. On the other hand, it is not efficient in terms of the volume of the solvent required to use less than 1% of nateglinide by weight. […]

- amount in which nateglinide is readily soluble (first solvents) (at an ambient temperature, methanol, ethanol, isopropanol, also acetone, tetrahydrofuran, dioxane, dichloromethane): at least 1 % by weight
- amount in which nateglinide is only poorly soluble (second solvents) (water, hexane, heptane and diethyl ether): ≤ 0.01 % by weight
Structure (SMILES): CC(C)[C@H]1CC[C@H](C(=O)N[C@H](Cc2ccccc2)C(=O)O)CC1 [nateglinide, N-(trans-4-isopropylcyclohexylcarbonyl)-D-phenylalanine]
